Experimental data from article PMC12723162, “Alphaherpesvirus pUL21 homologs use non-canonical sequences to compete with cellular adaptors for protein phosphatase 1 binding” (The Journal of Biological Chemistry, 2025).
Numbering of substitutions follows the chain as printed.

B1: H247F (protein)
chain: MELSYATTMHYRDVVFYVTTDRNRAYFVCGGCVYSVGRPCASQPGEIAKFGLVVRGTGPDDRVVANYVRSELRQRGLQDVRPIGEDEVFLDSVCLLNPNVSSELDVINTNDVEVLDECLAEYCTSLRTSPGVLISGLRVRAQDRIIELFEHPTIVNVSSHFVYTPSPYVFALAQAHLPRLPSSLEALVSGLFDGIPAPRQPLDAHNPRTDVVITGRRAPRPIAGSGAGSGGAGAKRATVSEFVQVKFIDRVGPAGVSPAPPPNNTDSSSLVPGAQDSAPPGPTLRELWWVFYAADRALEEPRADSGLTREEVRAVRGFREQAWKLFGSAGAPRAFIGAALGLSPLQKLAVYYYIIHRERRLSPFPALVRLVGRYTQRHGLYVPRPDDPVLADAINGLFRDALAAGTTAEQLLMFDLLPPKDVPVGSDVQADSTALLRFIESQRLAVPGGVISPEHVAYLGAFLSVLYAGRGRMSAATHTARLTGVTSLVLAVGDVDRLSAFDRGAAGAASRTRAAGYLDVLLTVRLARSQHGQSV
modifications: left off: GFP (from the vector pEGFP-N1), end not stated, kept
B2: R250E (protein)
chain: B1 chain with F247H, R250E
modifications: left off: GFP (from the vector pEGFP-N1), end not stated, kept
B3: VV211AA (protein)
chain: B1 chain with V211A, V212A, F247H
modifications: left off: GFP (from the vector pEGFP-N1), end not stated, kept
B4: A232K (protein)
chain: B1 chain with A232K, F247H
modifications: left off: GFP (from the vector pEGFP-N1), end not stated, kept
B5: Q174R (protein)
chain: B1 chain with Q174R, F247H
modifications: left off: GFP (from the vector pEGFP-N1), end not stated, kept
B6: A237V (protein)
chain: B1 chain with A237V, F247H
modifications: left off: GFP (from the vector pEGFP-N1), end not stated, kept
B7: A218E (protein)
chain: B1 chain with A218E, F247H
modifications: left off: GFP (from the vector pEGFP-N1), end not stated, kept
B8: V239F (protein)
chain: B1 chain with V239F, F247H
modifications: left off: GFP (from the vector pEGFP-N1), end not stated, kept

How the values were obtained:
pUL21-GFP = assay: Co-IP of Myc-PP1 with pUL21-GFP; assay type: binding, HSV-1; settings: for Co-IP of Myc-PP1 by pUL21-GFP: HEK 293T cells co-transfected, 24 h, immunoblot, versus WT Myc-PP1; for Abundance of Myc-PP1 in cell lysates: HEK 293T lysates used for IP; for Abundance of Myc-PP1 in cell lysates / Bound:input ratio of Myc-PP1 (effect of mutation): versus WT; for Bound:input ratio of Myc-PP1 (effect of mutation): densitometry, HEK 293T, ∗∗∗p < 0.001
Text: (§1) Bacterial expression plasmids encoding the mouse PP1γ catalytic domain (residues 7–300)-H6 and pUL21-H6, and mammalian expression vectors encoding pUL21(FV242AA)-GFP, pORF38-GFP and pORF38(FV255AA)-GFP, were described previously ([23]). We note that the mouse and human PP1γ catalytic domains share 100% amino acid identity. pORF38-NLT-H6 was generated by sub-cloning residues 1 to 263 of ORF38 into the vector pOPTnH ([52]). pUL21-RVxF-H6 was generated by inserting the mutations A237V and V239F into pUL21-H6 by QuikChange site-directed mutagenesis. Human PP1α was cloned from HeLa cell cDNA into a vector derived from pF5K (Promega) with an N-terminal Myc epitope tag via restriction-based cloning, and point mutations were introduced into Myc-PP1α by QuikChange mutagenesis. A plasmid encoding pUL21-GFP was generated by sub-cloning a codon-optimized synthetic UL21 gene (GeneArt) into pEGFP-N1 (Clontech), yielding an identical pUL21-GFP amino acid sequence as used in ([23]). pUL21-ΔL, -ΔR and -ΔLR were generated from this vector via inverse PCR, and point mutations were introduced via QuikChange mutagenesis.
(§2) Mycoplasma-free human embryonic kidney 293T (HEK 293T) cells (American Type Culture Collection #CRL-3216) were maintained in Dulbecco’s modified Eagle’s medium (DMEM) with high glucose (Merck), supplemented with 10% (v/v) heat-inactivated fetal calf serum and 2 mM L-glutamine (complete DMEM) in a humidified 5% CO2 atmosphere at 37 °C. The identity of the cell line was not independently confirmed.
(§3) Monolayers of HEK 293T cells were transfected with 7.7 μg of DNA per 9 cm dish, using 18 μg/ml 25 kDa branched polyethylenimine (Merck) or using TransIt-LT1 (Mirus) in accordance with the manufacturer’s instructions. Cells were harvested 24 h post-transfection and incubated for 30 min in ice-cold 10 mM Tris pH 7.5, 150 mM NaCl, 0.5 mM EDTA, 0.5% Igepal CA-630 (a.k.a. NP-40), 1% (v/v) EDTA-free protease inhibitor cocktail (Merck) before clarification at 21,000×g for 10 min at 4 °C. Lysate protein concentrations were measured using the bicinchoninic acid (BCA) assay (Pierce) and normalized before affinity capture using GFP-Trap resin (ChromoTek) following the manufacturer’s protocol. Samples were eluted by heating the resin to 95 °C for 5 min in 45 μl 2 × SDS-PAGE loading buffer. Proteins were separated by SDS-PAGE and transferred to 0.45 μm nitrocellulose membranes (PerkinElmer or Cytiva). Membranes were stained with Ponceau S and imaged using a G:Box XX9 (Syngene) before blocking in Tris-buffered saline with 0.1% TWEEN-20 (TBS-T) supplemented with 5% (w/v) non-fat milk powder. Immunoblotting was performed using antibodies diluted in blocking buffer as listed below, and immunoblots were imaged using an Odyssey CLx (LI-COR Biosciences). Densitometry was performed using Image Studio Lite version 5.2 (LI-COR Biosciences), and statistical tests were performed using Prism version 7 (GraphPad).
(§4) The following primary antibodies and dilutions were used for immunoblotting: rabbit anti-CERT 1:10,000 (Abcam #Ab72536), mouse anti-PP1α 1:1000 (Santa Cruz #sc-271762), mouse anti-Myc 1:4000 (Millipore #05–724), rat anti-tubulin (clone YL1/2) hybridoma supernatant 1:40 ([54]). The anti-CERT antibody was validated using a knock-out cell line. The anti-PP1α antibody has been validated by siRNA knockdown ([55]). The anti-Myc antibody was validated using control experiments lacking Myc-tagged transfected constructs ([56]). The anti-tubulin antibody has been validated by immunofluorescence microscopy, immuno-electron microscopy and radiolabeled immunosorbent assay ([54]). Secondary antibodies from LI-COR Biosciences were diluted 1:10,000 as follows: IRDye 680RD goat anti-rat (#926–68029) and goat anti-mouse (#926–68020), or IRDye 800CW goat anti-rabbit (#926–32221).

PP1 regulatory protein = settings: cited from earlier work
Text: HEK 293T cells were co-transfected with pUL21-GFP and WT or mutant Myc-PP1, and lysates were subjected to GFP affinity capture before SDS-PAGE and immunoblott ...

endogenous PP1α = assay: GFP affinity capture / co-IP of endogenous PP1α with GFP-tagged bait; assay type: binding, human; settings: HEK 293T cells, 24 h post-transfection, GFP-Trap, immunoblot; representative of two independent experiments
Text: as §1, §2, §3, §4

Molecule | Co-IP of Myc-PP1 by pUL21-GFP (pUL21-GFP) | Abundance of Myc-PP1 in cell lysates (pUL21-GFP) | Bound:input ratio of Myc-PP1 (effect of mutation) (pUL21-GFP) | PP1 regulatory protein binding (PP1 regulatory protein) | Co-IP of endogenous PP1α (endogenous PP1α)
C291R | profoundly less efficient than for WT Myc-PP1 | lower abundance of these mutants in the cell lysates | significantly disrupt binding to pUL21-GFP | severely decrease PP1 regulatory protein binding | 
F257A | profoundly less efficient than for WT Myc-PP1 | lower abundance of these mutants in the cell lysates | significantly disrupt binding to pUL21-GFP | severely decrease PP1 regulatory protein binding | 
L289R | profoundly less efficient than for WT Myc-PP1 | lower abundance of these mutants in the cell lysates | significantly disrupt binding to pUL21-GFP | severely decrease PP1 regulatory protein binding | 
B1 |  |  |  |  | co-precipitated more PP1α than did WT pUL21-GFP
B2 |  |  |  |  | dramatically reduced binding
B3 |  |  |  |  | PP1α coIP was abolished
B4 |  |  |  |  | did not dramatically alter PP1α coIP
B5 |  |  |  |  | PP1α coIP was abolished
B6 |  |  |  |  | co-precipitated more PP1α than did WT pUL21-GFP
B7 |  |  |  |  | PP1α coIP was abolished
B8 |  |  |  |  | co-precipitated more PP1α than did WT pUL21-GFP
